From patent US20110268757A1, “USE OF PHENOL-SOLUBLE MODULINS FOR VACCINE DEVELOPMENT” (INSTITUT PASTEUR, priority 2008, published 2011)

Legend:
[1] = test system: target cells pulsed with peptide 1073; assay: In vivo killing assay using target cells pulsed with peptide 1073; conditions: 5 nmoles peptide with poly I:C, seven days after immunization
Method: C57BL6 mice were intravenously immunized intravenously with 5 nmoles of the indicated peptides in combination with 50 μg of the TLR3 ligand poly I:C. In some cases, the peptides were immunized in the presence of TLR2 (peptidoglycan), TLR4 (LPS or the EDA protein) or TLR9 (CpG) ligand. […] On the following day, the mice were sacrificed and the splenocytes were analyzed by flow cytometry to quantify the number of cells with high CFSE labeling with respect to the cells with low CFSE labeling. Thus, the percentage of cell lysis of the cells incubated with the cytotoxic […] peptide can be calculated in an experiment called in vivo killing.
(§1) Thus the peptides αMod-1073, γMod-1073 and δMod-1073 as well as the peptide p1073 alone were synthesized. HELD transgenic mice (which express the human HLA_A2 molecule) were immunized with 5 nmoles of the corresponding peptide in the presence of poly I:C. Seven days after immunization, ELISPOT and in vivo killing assays were carried out as described above using target cells pulsed with peptide 1073.

[2] = test system: IFNγ producing cells specific for peptide p1073 from hepatitis C NS3 protein; assay: ELISPOT of IFNγ producing cells specific for peptide 1073 after immunization; type: in vivo; conditions: 5 nmoles peptide with poly I:C, seven days after immunization
Method: For the analysis of IFNγ-producing cells specific for […] and induced in vivo by the immunizations, ELISPOT experiments were carried out using a BD-pharmingen kit (San Diego, Calif.) and according to the instructions of the manufacturer. Briefly, the plates (Multiscreen HTS, Millipore, Bedford, Mass.) incubated overnight with the anti-IFNγ antibody were blocked for 2 hours with HL-1 medium (Biowhittaker, Verviers, Belgium) containing 10% horse serum. Thus, 5×10^5 splenocytes were incubated in triplicate in the absence or in the presence of the antigens at 37° C. and 5% CO2. On the following day, the plates were washed with PBS and incubated with biotinylated anti-IFNγ antibody (2 mg/ml). After two hours, the plates were washed and incubated with a 1/100 dilution of streptavidin-peroxidase. One hour later, the wells were washed and developed using the AEC substrate set (BD-Pharmingen). The colorimetric reaction was stopped with distilled water and the number of spots was quantified using an ELISPOT automatic reader (CTL, Aalen, Germany).
as §1

[3] = test system: dendritic cells derived from bone marrow; assay: Expression of messenger RNA for IL-12 p40 and TNFα in dendritic cells (real-time PCR); type: cell-based, mouse; conditions: 50 μM peptide, 16 hours, versus culture medium alone, p<0.05
Method: (§2) Dendritic cells were grown from bone marrow cells. […] The remaining cells grew in 12 culture plates in complete medium with 10^6 cells/ml supplemented with 20 ng/ml of mGM-CSF and 20 ng/ml of mIL-4 (both from Peprotech; London, GB). Every 2 days the medium was substituted with fresh medium containing cytokines. On day 7, non-adherent dendritic cells were collected, and cultured in the presence or absence of 50 μM of modulin peptides or of 1 μg/ml of LPS (Sigma) and incubated for 48 hours at 37° C. and 5% CO2. After this period, the cells were isolated and incubated with anti IAb, CD54 and CD86 antibodies (Pharmingen). In parallel experiments, the dendritic cells were incubated with the indicated stimuli for 16 hours, after which the expression of the messenger RNA for the p40 molecules of IL-12 and of TNF-α was analyzed.
The total RNA of dendritic cells incubated for 16 hours with the different stimuli indicated above were extracted using the Nucleic Acid Purification Lysis Solution (Applied BioSystems, Foster City, Calif.) and the ABI PRISM 6100 Nucleic Acid PrepStation (Applied BioSystems) semiautomatic system.

[4] = test system: dendritic cells derived from bone marrow; assay: Upregulation of maturation markers on dendritic cells (flow cytometry); type: cell-based, mouse; conditions: 50 μM peptide, 48 hours
Method: as §2
Expression of DC maturation markers was measured by flow cytometry. DC were harvested and pre-incubated with a rat anti-CD16/32 mAb (2.4G2 clone, BD Pharmingen) for 15 min, to block non-specific binding of primary antibodies. After this initial incubation, cells were stained with the primary antibodies at 4° C. for 15 min, washed and acquired on FACSscan cytometer (BD Biosciences, San Diego, Calif.) and analyzed using Cell Quest software (BD Biosciences).

[5] = test system: TC-1 tumor cells (expressing the E7 protein of the HPV-16 virus); assay: Treatment of mice carrying TC1 subcutaneous tumors; type: in vivo, C57B/6 mice; conditions: TC1 tumors of 8 mm diameter, i.v. peptide plus 50 μg/ml poly I:C, second immunization seven days later
Method: The C57B/6 mice were subcutaneously injected with 5×10^5 TC-1 tumor cells (expressing the E7 protein of the HPV-16 virus). After 25 days, when the tumor reaches a diameter of 8 mm, the mice are intravenously treated with PBS (B), with peptide E7(49-57) plus 50 μg/ml poly I:C(C), or with peptide αMod-E7(49-57) plus 50 μg/ml poly I:C (D). Seven days later, the mice received a second immunization of the same immunogens. The tumor size, presented as the average of two perpendicular diameters, was measured at regular intervals using a gauge. The number of tumor-free mice relative to the total number of animals per group is included for each treatment.

[6] = test system: IFNγ-producing cells in response to the SIINFEKL peptide; assay: ELISPOT of IFNγ-producing cells specific for SIINFEKL after immunization; type: in vivo, C57BL/6 mice; conditions: 5 nmoles peptide plus 50 μg poly I:C
Method: C57BL6 mice were intravenously immunized intravenously with 5 nmoles of the indicated peptides in combination with 50 μg of the TLR3 ligand poly I:C. In some cases, the peptides were immunized in the presence of TLR2 (peptidoglycan), TLR4 (LPS or the EDA protein) or TLR9 (CpG) ligand. Seven days after the immunization, the mice were intravenously injected with a mixture of 5×10^6 splenocytes, half of which had been previously labeled with a dose of 0.25 μM C and the other half with 2.5 uM CFSE and the SIINFEKL peptide (10 μg/ml). On the following day, the mice were sacrificed and the splenocytes were analyzed by flow cytometry to quantify the number of cells with high CFSE labeling with respect to the cells with low CFSE labeling. Thus, the percentage of cell lysis of the cells incubated with the cytotoxic SIINFEKL peptide can be calculated in an experiment called in vivo killing.
For the analysis of IFNγ-producing cells specific for SIINFEKL and induced in vivo by the immunizations, ELISPOT experiments were carried out using a BD-pharmingen kit (San Diego, Calif.) and according to the instructions of the manufacturer. Briefly, the plates (Multiscreen HTS, Millipore, Bedford, Mass.) incubated overnight with the anti-IFNγ antibody were blocked for 2 hours with HL-1 medium (Biowhittaker, Verviers, Belgium) containing 10% horse serum. Thus, 5×10^5 splenocytes were incubated in triplicate in the absence or in the presence of the antigens at 37° C. and 5% CO2. On the following day, the plates were washed with PBS and incubated with biotinylated anti-IFNγ antibody (2 mg/ml). After two hours, the plates were washed and incubated with a 1/100 dilution of streptavidin-peroxidase. One hour later, the wells were washed and developed using the AEC substrate set (BD-Pharmingen). The colorimetric reaction was stopped with distilled water and the number of spots was quantified using an ELISPOT automatic reader (CTL, Aalen, Germany).
For the analysis of IFNγ-producing cells in the presence of SIINFEKL and induced in vivo by the immunizations, ELISPOT experiments were carried out using a BD-pharmingen kit (San Diego, Calif.) and according to the instructions of the manufacturer, in the same manner as in Example 3.

[7] = test system: mouse splenocytes; assay: Binding of CFSE labeled peptides to glutaraldehyde-fixed splenocytes (flow cytometry); type: cell-based; conditions: unlabeled competitor 100 μM, 20 μM CFSE γMod-SIINFEKL
Method: Binding assays were carried out using either splenocytes (FIG. 1, panels A B, D, E and G) or bone marrow derived dendritic cells (FIG. 1, panels C and F). The cells were fixed by means of an incubation with a 0.4% glutaraldehyde solution for 15 minutes at 4° C. 5×10^5 fixed cells were incubated in the presence of 20 μM CFSE αMod-[sequence] (FIG. 1, panels A, B and C), or CFSE γMod-[sequence] (FIG. 1, panels D, E, F and G). In some assays, and to study the specificity of CFSE labeled peptide binding, these incubations were carried out in the presence or absence of the unlabeled peptides αMod-[sequence], γMod-[sequence] or [sequence] (100 μM) (panels B and E). Also, we carried out binding assays using the CFSE labeled peptide CFSE-OVA (235-264) as a negative control (FIG. 1, panels A, C, D and F). After 30 minutes of incubation at 4° C., two washings with PBS were carried out and the performed labeling was analyzed by flow cytometry. In some experiments (FIG. 1G), double staining was carried out using anti-CD4, CD8, CD11c, CD19, F480 or GR1(CD117) antibodies labeled with phycoerythrin (Pharmingen) together with the CFSE-γMod-[sequence] peptide. In these cases, the labeling with the specific antibodies was carried out before fixing the cells with glutaraldehyde.

[8] = test system: EG7OVA tumor cells; assay: Protection against the challenge with EG7OVA tumor cells after immunization; type: in vivo, C57BL/6 mice; conditions: 5 nmoles peptide with poly I:C
Method: Protection against the challenge with EG7 tumor cells expressing the OVA protein C57BL6 mice were subcutaneously immunized with 5 nmol of the indicated peptides in combination with poly I:C. […] In some experiments, mice were first challenged s.c with 5×10^5 cells and when tumors reached 5 mm in diameter they were treated with the indicated peptide. The tumor growth was controlled with a gage. Mice were sacrificed when the tumor reached a volume greater than 4 cm^3. Kaplan-Meier plot of mice survival for each immunogen is depicted.

[9] = test system: splenocytes pulsed with the SIINFEKL peptide; assay: In vivo killing assay against SIINFEKL-pulsed splenocytes after immunization; parameters: species or system C57BL/6 mice; conditions: 5 nmoles peptide plus 50 μg poly I:C
Method: C57BL6 mice were intravenously immunized intravenously with 5 nmoles of the indicated peptides in combination with 50 μg of the TLR3 ligand poly I:C. In some cases, the peptides were immunized in the presence of TLR2 (peptidoglycan), TLR4 (LPS or the EDA protein) or TLR9 (CpG) ligand. […] On the following day, the mice were sacrificed and the splenocytes were analyzed by flow cytometry to quantify the number of cells with high CFSE labeling with respect to the cells with low CFSE labeling. Thus, the percentage of cell lysis of the cells incubated with the cytotoxic SIINFEKL peptide can be calculated in an experiment called in vivo killing.
C57BL6 wild type mice and knockout mice were immunized for TLR2 with the aim of studying the dependence on TLR2 in the immunostimulating capacity of modulin-derived peptides. Thus, different mice were injected with 5 nmoles of the indicated peptides or with PBS in combination with 50 μg of the TLR3 ligand poly I:C. […] On the following day, the mice were sacrificed and the splenocytes were analyzed by flow cytometry to quantify the number of cells with high CFSE labeling with respect to the cells with low CFSE labeling in the same manner as in Example 3.

[10] = test system: EG7OVA tumor cells; assay: Treatment of mice bearing established EG7OVA tumors; type: in vivo, C57BL/6 mice; conditions: EG7OVA tumors of 5 mm diameter at treatment, peptide plus poly I:C, p<0.05
Method: Protection against the challenge with EG7 tumor cells expressing the OVA protein C57BL6 mice were subcutaneously immunized with 5 nmol of the indicated peptides in combination with poly I:C. Seven days after the immunization, the mice were subcutaneously injected with 5×10^5 or with 5×10^7 EG7OVA cells. In some experiments, mice were first challenged s.c with 5×10^5 cells and when tumors reached 5 mm in diameter they were treated with the indicated peptide. The tumor growth was controlled with a gage. Mice were sacrificed when the tumor reached a volume greater than 4 cm^3. Kaplan-Meier plot of mice survival for each immunogen is depicted.

[11] = test system: T cells from OT-1 transgenic mice; assay: Antigen presentation assay: proliferation of OT-1 T cells (tritiated thymidine); type: cell-based, mouse; conditions: dendritic cells incubated with 10 μM peptide
Method: Dendritic cells derived from bone marrow were cultured in the presence or absence of 10 μM of the indicated peptides (FIG. 3). Forty hours later, the cells were washed and distributed in 96-well plates at different concentrations and incubated in the presence of 10^5 T cells/well obtained from OT-1 transgenic mice (which express a specific T receptor for the SIINFEKL peptide of ovalbumin. Seventy-two hours later, tritiated thymidine was added to the cultures and six hours later the cells were harvested and the incorporated thymidine was analyzed in a scintillation counter (Topcount Packard).

With “CVNGVCWTV [Peptide 1073, reference compound]” as the substance, how does the “CTL activity against peptide 1073 (in vivo killing)” value (“CTL activity” for short) [1] read?
Its value is “not found”.

And the “IFNγ producing cells specific for peptide 1073 (ELISPOT)” value (shortened to “IFNγ producing cells specific”) [2]?
The value was “not found”.

With MAADIISTIGDLVKWIIDTVNKFKK [γMod] as the substance, how does the “expression of messenger RNA for IL-12 (p40)” value [3] read?
Its value is “capable of increasing the expression”.

And the “expression of messenger RNA for TNF-alpha” value [3]?
Its value is “capable of increasing the expression”.

What about the “expression of CD54 on dendritic cells” value [4] of the same substance?
Its value is “promotes the expression”.

And the “expression of the IAb molecule on dendritic cells” value [4]?
Its value is “promotes the expression”.

What does the source list for “MAADIISTIGDLVKWIIDTVNKFKKCVNGVCWTV [γMod-1073]”?
CTL activity against peptide 1073 (in vivo killing) [1]: high levels of CTL activity; IFNγ producing cells specific for peptide 1073 (ELISPOT) [2]: high numbers of IFNγ producing cells

With “MADVIAKIVEIVKGLIDQFTQK (Staphylococcus epidermidis RP62A) [αMod]” as the substance, how does the “expression of messenger RNA for IL-12 (p40)” value [3] read?
Its value is “capable of increasing the expression”.

And the “expression of messenger RNA for TNF-alpha” value [3]?
Its value is “capable of increasing the expression”.

And the “expression of CD54 on dendritic cells” value [4]?
The value was “activates the expression”.

What about the “expression of CD86 on dendritic cells” value [4] of the same substance?
The value was “activates the expression”.

And the “expression of the IAb molecule on dendritic cells” value [4]?
Its value is “activates the expression”.

How did the “CTL activity” value [1] turn out when “MADVIAKIVEIVKGLIDQFTQKCVNGVCWTV [αMod-1073]” was run?
The value was “strong T cell immune responses”.

What about the “IFNγ producing cells specific” value [2] of the same substance?
The value was “strong T cell immune responses”.

For “MSIVSTIIEVVKTIVDIVKKFKKCVNGVCWTV [δMod-1073]”, which “CTL activity” value [1] is on record?
The value was “high levels of CTL activity”.

And the “IFNγ producing cells specific” value [2]?
The value was “high numbers of IFNγ producing cells”.

For “RAHYNIVTF [E7(49-57), reference compound]”, which “number of tumor-free (cured) mice relative to the total number of mice” value [5] is on record?
Its value is 4 of 11.

With SIINFEKL [reference compound] as the substance, how does the “IFNγ-producing cells in response to SIINFEKL (ELISPOT)” value ([6]; 60 days after immunization) read?
The value was “not capable of inducing”.

What about the “IFNγ-producing cells in response to SIINFEKL (ELISPOT)” value ([6]; seven days after immunization) of the same substance?
Its value is “not capable of activating these responses”.

What about the “reduction of the bright fluorescence of CFSE γMod-SIINFEKL on splenocytes by unlabeled peptide” value [7] of the same substance?
Its value is “did not affect this signal”.

And the “protection from tumor growth after EG7OVA challenge” value ([8]; 5×10^5 EG7OVA cells s.c. seven days after immunization (FIG. 5A))?
The value was “developed tumors”.

And the “protection from tumor growth after EG7OVA challenge” value ([8]; 7×10^5 EG7OVA cells s.c. seven days after immunization (FIG. 5B))?
Its value is “developed tumors”.

And the “cells with lysis capacity against SIINFEKL (in vivo killing)” value ([9]; 60 days after immunization)?
The value was “not capable of inducing”.

What about the “specific cytotoxic activity against SIINFEKL (in vivo killing)” value ([9]; seven days after immunization) of the same substance?
The value was “not capable of activating these responses”.

And the “mice rejecting the established tumor” value [10]?
Its value is 0%.

What about the “proliferation of OT-1 T lymphocytes stimulated by peptide-incubated dendritic cells” value [11] of the same substance?
The value was “proliferate better”.

“polyinosinic-polycytidylic acid [poly I:C]” was tested. Which “mice rejecting the established tumor” value [10] did it give?
Its value is 0%.
